Measured values taken from US20220096450A1, “Compounds and Methods for Treating or Preventing Heart Failure” (DREXEL UNIVERSITY, priority 2019, published 2022).

What was measured:
[1] = Cell Counting Kit-8 cytotoxicity assay in H9C2 cells; assay type: cell-based; conditions: rat
Method: (§1) H9C2 cells, a rat ventricular cardiomyoblast cell line were obtained from ATCC (CRL-1446) and maintained in Dulbecco's modified Eagle's medium (DMEM) containing 10% FBS and 1× GlutaMAX. For hypertrophy studies, the cells were plated onto 4-well glass chamber slides precoated with poly-D-lysine. The maintenance medium was aspirated after 24 h and the cells were serum-starved overnight in DMEM containing 1% FBS and 1× GlutaMAX and then incubated for 48 h in fresh serum-starved medium containing isoproterenol, as indicated.
Cytotoxicity assays were conducted under the same conditions used for hypertrophy assays with NVCMs or H9C2 cells, as described elsewhere herein.

[2] = molecular target: T1, mitochondrial CoQ-dependent respiratory complex II (Mus musculus, UniProt Q8K2B3+Q9CQA3+Q9CXV1+Q9CZB0); assay: Biochemical selectivity assay, respiratory complex II; conditions: highest concentration tested 11 μM
T1 construct: mouse muscle homogenate preparations that contain disrupted mitochondrial membranes; from tissue; host or cells: mouse muscle homogenate
T1 sequence (Q8K2B3 43-664): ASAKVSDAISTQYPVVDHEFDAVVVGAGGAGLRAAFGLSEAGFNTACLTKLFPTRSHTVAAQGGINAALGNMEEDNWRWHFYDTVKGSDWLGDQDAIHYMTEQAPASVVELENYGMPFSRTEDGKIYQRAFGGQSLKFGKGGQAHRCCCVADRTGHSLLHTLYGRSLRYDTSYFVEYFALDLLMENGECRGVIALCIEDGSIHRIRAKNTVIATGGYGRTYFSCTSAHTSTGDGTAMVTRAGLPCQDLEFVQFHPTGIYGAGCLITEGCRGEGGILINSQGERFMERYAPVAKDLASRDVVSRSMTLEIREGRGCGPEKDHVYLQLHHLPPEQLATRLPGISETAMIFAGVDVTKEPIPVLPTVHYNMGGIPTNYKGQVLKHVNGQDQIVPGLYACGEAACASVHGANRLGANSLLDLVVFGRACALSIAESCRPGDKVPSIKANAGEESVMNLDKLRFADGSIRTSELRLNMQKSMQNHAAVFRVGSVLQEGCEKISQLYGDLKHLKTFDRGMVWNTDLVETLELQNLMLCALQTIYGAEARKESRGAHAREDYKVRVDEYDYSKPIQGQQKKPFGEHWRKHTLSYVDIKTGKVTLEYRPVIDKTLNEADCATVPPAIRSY
T1 sequence (Q9CQA3 31-282): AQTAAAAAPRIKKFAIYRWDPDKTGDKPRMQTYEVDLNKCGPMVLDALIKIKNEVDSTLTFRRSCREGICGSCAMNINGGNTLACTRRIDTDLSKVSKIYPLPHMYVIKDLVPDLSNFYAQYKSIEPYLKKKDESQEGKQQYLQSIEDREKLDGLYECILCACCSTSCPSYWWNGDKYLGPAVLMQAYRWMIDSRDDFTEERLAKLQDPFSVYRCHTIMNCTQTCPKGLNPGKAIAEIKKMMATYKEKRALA
T1 sequence (Q9CZB0 30-169): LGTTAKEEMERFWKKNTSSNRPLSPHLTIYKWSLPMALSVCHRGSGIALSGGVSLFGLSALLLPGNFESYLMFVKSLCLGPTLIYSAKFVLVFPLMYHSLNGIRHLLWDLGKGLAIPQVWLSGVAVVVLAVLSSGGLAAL
T1 sequence (Q9CXV1 57-159): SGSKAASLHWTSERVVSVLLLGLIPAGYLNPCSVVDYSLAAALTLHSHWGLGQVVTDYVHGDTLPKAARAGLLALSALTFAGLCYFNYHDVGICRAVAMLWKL
Method: Inhibitor selectivity was assessed using mouse muscle homogenate preparations that contain disrupted mitochondrial membranes, a feature that makes substrates accessible to each of the membrane-bound respiratory complexes. Spectrophotometric assays for each complex are conducted in the presence or absence of a target-specific inhibitor (FIG. 9) to correct for nonspecific substrate oxidation, as previously described (Spinazzi et al., 2012, Nature Protocols 7: 1235-1246). Thus, the activity of complex I is determined by monitoring the oxidation of NADH in the absence or presence of rotenone. Complex III activity is measured based on the rate of cytochrome C reduction observed in the presence or absence of antimycin A. The reaction catalyzed by complex II produces decylubiquinol (decylCoQH2), which rapidly reduces DCIP. The activity of […] is determined by monitoring DCIP reduction in the presence and absence of 2-thenoyltrifluoroacetone (TTFA).

[3] = system: TAC mouse model of heart failure; assay type: in vivo; conditions: 10 mg/kg i.p. daily
Method: Male C57BL/6J mice 10-14 weeks of age were purchased from The Jackson Laboratory (Bar Harbor, Me.).
Mice were anesthetized with isofluran or ketamine/xylazine. The mice were orally intubated and placed on a Harvard volume-cycled rodent ventilator to maintain respiration during surgery. The TAC procedure was performed by tying the aortic arch between the brachiocephalic trunk (innominate artery) and the left carotid artery against a 27-gauge needle spacer with a 7-0 silk suture, followed by immediate removal of the needle. For sham surgeries, thoracotomy was performed and the aorta was surgically exposed without any further intervention. Following surgical closure of the chest, the animals were allowed to recover from anesthesia, followed by post-operative care. The animals were euthanized 12 weeks post-surgery; hearts were harvested, weighed and tibia lengths were measured.
Sterile stock solutions of vehicle only [NMP:PG:kleptose in water (10:40:50)] were similarly prepared each week and stored in aliquots at 4° C. until use. […] (to minimize precipitation), and then cooled to room temperature.
Transthoracic echocardiography was used to noninvasively quantify cardiac structural and functional changes during the progression to heart failure in the TAC mouse model. Measurements were conducted with animals under 1-3% isoflurane anesthesia using a Vevo® 2100 Imaging System with a high-frequency (18-38 MHz) probe (VisualSonics MS400) (Kohut et al., 2016, J. Cardiovasc. Ultrasound 24: 229-238). Echocardiography using color Doppler ultrasound was performed at 1 week after surgery to confirm the aortic constriction. The aortic constriction was further confirmed by conducting color Doppler and pulsed wave Dopier measurements at 12 weeks after surgery. Baseline echocardiography evaluations were performed 1-2 days prior to surgery. For these studies, parasternal long and short axis images were obtained in two-dimensional B-mode and M-mode. Additional images were obtained at regular intervals (2, 4, 6, 8, 10, 12 weeks) after surgery. To evaluate cardiac structure and function, the echocardiographic data were used to determine left ventricle (LV) end-diastolic diameter, LV end-systolic diameter, LV end-diasolic volume, LV ejection fraction, LV fractional shortening, and LV mass.
Mouse hearts were collected at 12 weeks post surgery, fixed in 10% buffered formalin, and then embedded in paraffin blocks, which were used to prepare serial 4 μm thick heart sections. To detect interstitial fibrosis, heart sections were stained with Masson's trichrome which colors collagen blue and cytoplasm red. Digital images of the slides were captured at 160× magnification using a Leica DFC290 digital camera in conjunction with a Leica MZ16F microscope. […] For each heart, 2 sections taken from the mid-ventricle were analyzed. […] Images were acquired using a FV3000 Olympus Confocal Microscope and analyzed in a blinded manner by two observers. Five field views per mid-ventricle heart section were analyzed by measuring the cross-sectional area of 100 cells per field view using ImageJ. A total of 500 cells per heart section were measured.
All data are expressed as means±SEM. Statistical significance was evaluated for comparison between 3 or more means using one-way ANOVA with Tukey-Kramer post hoc test. For the echcocardiography data, obtained prior to and at two-week intervals after surgery, statistical significance was evaluated using two-way repeated ANOVA with Bonferroni post hoc test.

H9C2 cells = assay: Isoproterenol-induced hypertrophy assay in H9C2 cells; assay type: cell-based, rat; conditions: isoproterenol 100 μM 24 h, then 50 μM 24 h; 10.5 μM FC9402
Method: as §1, with “indicated. […] Images were acquired using a FV3000 Olympus Confocal Microscope and analyzed using ImageJ. Cell surface area was determined by encircling the outer membrane of 30-50 cells per field in 6-10 field images for a total of 500 cells per condition.” for “indicated.”

[4] = echocardiography, TAC mice, 12 weeks

## COc1nc(-c2ncccc2C)cc(-c2ccc(N)cc2)c1C#N [FC9402, 4-(4-aminophenyl)-2-methoxy-6-(3-methylpyridin-2-yl)pyridine-3-carbonitrile]
[1]
  CC50 at 48 h: 56 ± 10 µM
[2]
  inhibition of respiratory complex II: did not inhibit
[3]; TAC mice
  survival after 12 weeks: 100%
[3]; TAC mice, 12 weeks
  cardiac enlargement (gross morphology, heart weight to tibia length): prevented the TAC-induced cardiac enlargement
[3]; [4]
  left ventricle function (ejection fraction, fractional shortening): preserved left ventricle function
  left ventricle size (diameter, volume, mass): maintained left ventricle size
[3]; lung weight/tibia length above 95% confidence interval of sham
  mice that developed heart failure: 20%
H9C2 cells
  hypertrophic response (cell surface area): mitigates the hypertrophic response
